Reference: article PMC8463504 (Journal of inorganic biochemistry, 2021)
Read-outs that look alike come from different tables or passages of the source.

Experiments:
HbIII [1] = target: T1, HbIII (Phacoides pectinatus, UniProt P41262); conditions: read-out: Equilibrium dissociation constant (Kd), pH 7.5; cited from earlier work
T1 sequence (P41262 1-153): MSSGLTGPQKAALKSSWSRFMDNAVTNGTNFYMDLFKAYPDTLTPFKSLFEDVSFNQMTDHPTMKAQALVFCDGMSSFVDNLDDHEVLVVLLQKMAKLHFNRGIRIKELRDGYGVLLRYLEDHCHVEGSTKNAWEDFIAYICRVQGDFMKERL

[2] = cited from earlier work
HbI [3] = target: T2, HbI (Phacoides pectinatus, UniProt P41260); conditions: cited from earlier work
HbII [4] = target: T3, HbII (Phacoides pectinatus, UniProt P41261); conditions: read-out: Equilibrium dissociation constant (Kd), pH 7.5; cited from earlier work
T3 sequence (P41261 1-151): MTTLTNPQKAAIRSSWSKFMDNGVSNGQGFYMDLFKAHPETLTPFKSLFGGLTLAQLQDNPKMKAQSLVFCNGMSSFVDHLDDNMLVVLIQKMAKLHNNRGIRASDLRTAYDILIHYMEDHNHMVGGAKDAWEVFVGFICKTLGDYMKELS

HbI [5] = target: T2, HbI; conditions: read-out: Equilibrium dissociation constant (Kd), pH 7.5; cited from earlier work
HbIII [6] = target: T1, HbIII; conditions: read-out: Equilibrium dissociation constant (Kd), pH 7.5; cited from earlier work; remark: listed apart in the source
HbII [7] = target: T3, HbII; conditions: read-out: Equilibrium dissociation constant (Kd), pH 7.5; cited from earlier work; remark: listed apart in the source
HHMb = conditions: read-out: Equilibrium dissociation constant (Kd), pH 7.5; cited from earlier work
HbIII [8] = target: T1, HbIII; test: biochemical
HbII [9] = target: T3, HbII; test: biochemical
adult hemoglobin (A-Hb) = adult hemoglobin (A-Hb) (Homo sapiens, UniProt P68871+P69905); test: biochemical; conditions: Measured fluoride binding dissociation constant (Kd)
HbI [10] = target: T2, HbI; conditions: pH 4 to 7 range
HbI [11] = target: T2, HbI; test: biochemical; conditions: Measured fluoride binding dissociation constant (Kd), pH 5.0
[12] = target: horse heart myoglobin (Mb) (Equus caballus, UniProt P68082); test: biochemical
[13] = assay type: physicochemical; conditions: for % folded protein: below pH 4.4; for pKa of acid denaturation: sigmoidal-Boltzmann fit of % folded protein vs pH
His64 = test: other; conditions: ferric heme-bound fluoride complex; cited from earlier work
[14] = Equilibrium dissociation constant (Kd), pH 7.5
[15] = Measured fluoride binding dissociation constant (Kd), pH 5.0
[16] = Measured fluoride binding dissociation constant (Kd), pH 7.0

Chain of horse heart myoglobin (Mb) (P68082 whole entry): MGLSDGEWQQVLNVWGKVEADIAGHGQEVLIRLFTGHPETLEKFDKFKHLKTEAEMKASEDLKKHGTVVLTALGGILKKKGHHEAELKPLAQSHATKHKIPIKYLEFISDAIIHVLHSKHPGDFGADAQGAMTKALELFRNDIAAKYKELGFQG
T2 sequence (P41260 whole entry): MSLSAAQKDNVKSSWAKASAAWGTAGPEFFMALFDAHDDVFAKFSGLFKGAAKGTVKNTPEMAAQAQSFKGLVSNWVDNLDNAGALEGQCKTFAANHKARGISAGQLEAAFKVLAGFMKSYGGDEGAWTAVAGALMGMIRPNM
Chain of adult hemoglobin (A-Hb) (P69905 2-142 limits assumed): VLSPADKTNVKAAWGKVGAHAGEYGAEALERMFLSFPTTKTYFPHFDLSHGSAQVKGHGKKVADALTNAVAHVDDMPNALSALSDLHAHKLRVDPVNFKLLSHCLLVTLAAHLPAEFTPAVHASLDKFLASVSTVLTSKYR
Chain of adult hemoglobin (A-Hb) (P68871 2-147 limits assumed): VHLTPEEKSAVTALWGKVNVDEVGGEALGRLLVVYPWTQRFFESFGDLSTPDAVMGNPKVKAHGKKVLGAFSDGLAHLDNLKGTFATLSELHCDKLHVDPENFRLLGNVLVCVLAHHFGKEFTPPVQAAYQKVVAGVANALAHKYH

For `S` [H2S, Hydrogen sulfide], the Kd (HbIII [1]) is given as greater than 16 µM, the “pKa (H2S/HS^− equilibrium)” value [2] is given as 7.0 and the “Affinity of HbI for H2S relative to HbII and HbIII” value (HbI [3]; HbI greater than HbII and HbIII) is given as 4,000 times. The Kd (HbI [3]; read-out: Equilibrium dissociation constant (Kd), HbI, pH 7.5) was 0.0034 µM and the Kd (HbII [4]) was 14.5 µM.

For `O=O` [O2, oxygen], the Kd (HbI [5]) is given as roughly 0.4 µM, the Kd (HbIII [6]) is given as 0.26 µM and the Kd (HbII [7]) is given as 0.28 µM. For the same molecule, the Kd (HHMb) was 1.3 µM.

For `F` [fluoride, sodium fluoride], the Kd (HbIII [8]; Apparent Kd from non-linear fit, above pH 12) was 4000 µM, the Kd (HbIII [8]; [14]) was 2900 µM and the Kd (HbIII [8]; [15]) was 500 ± 332 µM. The Kd (HbIII [8]; [16]) was 3100 ± 370 µM, the Kd (HbII [9]; [14]) was 3700 µM and the Kd (HbII [9]; [15]) was 330 ± 67 µM. The Kd (HbII [9]; [16]) was 1000 ± 156 µM, the Kd (adult hemoglobin (A-Hb); pH 5.0) was 9300 ± 5800 µM and the Kd (adult hemoglobin (A-Hb); pH 7.0) was 33000 ± 4000 µM. For the same molecule, the “Fluoride affinity in HbI, lower than the other studied heme proteins” value (HbI [10]) was “about two orders of magnitude”, the Kd (HbI [11]) was 100000 ± 61000 µM and the Kd ([12]; Equilibrium dissociation constant (Kd), HHMb, pH 7.5) was 41000 µM. It also gave a Kd ([12]; Measured fluoride binding dissociation constant (Kd), Mb, pH 5.0) of 3000 ± 820 µM and a Kd ([12]; Measured fluoride binding dissociation constant (Kd), Mb, pH 7.0) of 25000 ± 2800 µM.

For “A-Hb: Adult hemoglobin purchased from Sigma-Aldrich”, the “% folded protein” value [13] was “less than 50%” and the “pKa of acid denaturation” value [13] was 4.4.

For “Myoglobin (quoted literature values; species not stated in this article)”, the pKa (His64) is given as 5.3–5.7.

B1: Mb: horse heart (methods: horse skeletal muscle) myoglobin purchased from Sigma-Aldrich (protein, UniProt P68082 2-154, looked up)
Myoglobin: GLSDGEWQQVLNVWGKVEADIAGHGQEVLIRLFTGHPETLEKFDKFKHLKTEAEMKASEDLKKHGTVVLTALGGILKKKGHHEAELKPLAQSHATKHKIPIKYLEFISDAIIHVLHSKHPGDFGADAQGAMTKALELFRNDIAAKYKELGFQG
For B1, the “% folded protein” value [13] was “less than 50%” and the “pKa of acid denaturation” value [13] was 4.4.
